Like-named read-outs stand apart in the source and are kept apart here.
Legend:
Gl50803_16034 = target: T1, Gl50803_16034 (Giardia duodenalis, UniProt A8BHW1); experiment: thermal shift assay; format: binding
T1 construct: gene GL50803_0016034
T1 sequence (A8BHW1 1-432): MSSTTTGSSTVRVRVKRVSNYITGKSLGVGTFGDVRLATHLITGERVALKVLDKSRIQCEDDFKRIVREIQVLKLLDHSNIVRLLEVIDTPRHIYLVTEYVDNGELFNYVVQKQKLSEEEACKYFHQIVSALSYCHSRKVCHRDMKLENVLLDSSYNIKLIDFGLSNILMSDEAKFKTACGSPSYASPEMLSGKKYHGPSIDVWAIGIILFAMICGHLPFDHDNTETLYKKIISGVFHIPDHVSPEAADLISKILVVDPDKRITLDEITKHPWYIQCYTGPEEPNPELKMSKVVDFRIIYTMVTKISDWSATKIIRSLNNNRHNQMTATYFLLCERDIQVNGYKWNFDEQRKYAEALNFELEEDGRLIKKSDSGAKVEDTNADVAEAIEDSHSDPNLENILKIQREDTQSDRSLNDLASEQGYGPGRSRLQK

Gl50803_8445 = target: T2, Gl50803_8445 (Giardia duodenalis, UniProt A8BXP9); experiment: thermal shift assay; format: binding; settings: also printed as 2°–3°
T2 construct: gene GL50803_008445
T2 sequence (A8BXP9 1-597): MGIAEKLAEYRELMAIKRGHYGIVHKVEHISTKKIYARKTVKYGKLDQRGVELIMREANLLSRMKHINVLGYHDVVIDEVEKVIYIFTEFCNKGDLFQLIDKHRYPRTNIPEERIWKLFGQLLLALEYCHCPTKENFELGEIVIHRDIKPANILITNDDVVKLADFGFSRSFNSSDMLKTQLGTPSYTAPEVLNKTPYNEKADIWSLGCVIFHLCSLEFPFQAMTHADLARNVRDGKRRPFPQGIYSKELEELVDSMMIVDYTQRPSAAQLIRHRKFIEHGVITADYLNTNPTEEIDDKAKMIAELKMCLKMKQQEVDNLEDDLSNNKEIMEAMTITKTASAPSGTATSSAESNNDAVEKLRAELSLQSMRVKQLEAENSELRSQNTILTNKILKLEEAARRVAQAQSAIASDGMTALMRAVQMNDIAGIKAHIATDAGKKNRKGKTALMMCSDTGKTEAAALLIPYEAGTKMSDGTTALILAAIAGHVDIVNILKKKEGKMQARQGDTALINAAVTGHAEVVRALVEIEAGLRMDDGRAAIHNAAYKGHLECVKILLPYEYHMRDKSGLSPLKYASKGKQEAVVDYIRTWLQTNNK

Row | SMILES | ΔTm (Gl50803_16034; also printed as 2°–3°) | ΔTm (Gl50803_8445) | ΔTm (Gl50803_16034)
1 | CCOc1ccc2cc(-c3nc(C(C)(C)C)n4ccnc(N)c34)ccc2c1 [compound 1213, 1213] | ~ 3 ° | ~ 3 ° | 
2 | Nc1ncnc2c1c(-c1ccc(-c3ccccc3)cc1)nn2CC1CCNCC1 [compound 1244, 1244] |  |  | 5.2 °
3 | Nc1ncnc2c1c(-c1ccc3nc(-c4ccccc4)oc3c1)nn2CC1CCNCC1 [compound 1264, 1264] |  |  | 6.5 °

Reference: article PMC5091913, “Identification and Validation of Small-Gatekeeper Kinases as Drug Targets in Giardia lamblia” (PLoS Neglected Tropical Diseases, 2016)
